The record followed here is patent US9162993B2, “Preparation and pharmaceuticals of biphenyl benzamide-derived derivatives” (NATIONAL DEFENSE MEDICAL CENTER, priority 2012, dated 2015).

A short description of series [1]: MTT assay, RAW264.7 cell viability. Format: cell-based. To be noted: mouse; RAW 264.7 cells; cytotoxic concentration that produces 50% cell death. The method, then: (§1) The compounds 1 to 24 of the present invention is tested by three pharmacological activity tests as follows: (1) MTT assay to test the RAW264.7 cell (murine monocyte/macrophage cell line) viability; (2) Tartrate-resistant acid phosphatase (TRAP) staining and activity analysis to investigate the cell differentiation activity; (3) The activity test of bone resorption (Pit formation assay).
(§2) The synthesized difunisal derivatives, compounds 1 to 24, were pharmacologically tested to be identified the relationship between their structure and activity. Cell viability was measured by MTT assay in RAW 264.7 cells upon treatment with compounds at 5 μM. CC50 is the cytotoxic concentration that produces 50% (CC50) cell death. […] The multinucleated osteoclasts could be formed by RANKL-induced macrophage cell line […]. RAW 264.7 cells were cultured with the indicated in the presence of drug and RANKL (100 ng/mL). Numbers of TRAP-positive (TRAP^+) multinucleated cells (MNCs) were counted in the presence of RANKL to identify the relationship between osteoclast and bone formation. […] The compound 16 performed the best inhibitory effect in the TRAP staining. The compound 16 was a derivate from compound 4 and its structure was related to compound 4. Therefore, the compound 4 and 16 were performed by TRAP assay to evaluate the effect on osteoclast differentiation by different concentration of compounds. […] According to above result, it can be speculated that: (1) Due to different substitutes on benzene ring of difunisal, the inhibitory ability of RANKL-induced osteoclast differentiation would be different. (2) Due to the electron-withdrawing group substitutes of R1 and R4 on benzene ring, or electron-withdrawing group substitutes derivatives of R2 on benzene ring, such as compound 4. (R1═F and R4═F), compound 6 (R2═CF3), compound 9 (R2═CN) and compound 16 (R1═F and R4═F), (3) compound 4 (R1═F and R4═F) and compound 6 (R2═CF3), a cyclic derivate compound 16 (R1═F and R4═F) and compound 18 (R2═CF3), the inhibitory activity would be stronger.
Background: Formazan colour is commonly taken as a measure of viable cells.

Another series has as its system RAW 264.7 cells. Put plainly: MTT assay, RAW264.7 cell viability. Format: cell-based. To be noted: MTT assay, compounds at 5 μM. The method, then:
as §1, §2

Series [2] deals with RANKL-induced osteoclast differentiation in RAW 264.7 cells. Put plainly: TRAP staining, RANKL-induced osteoclast differentiation (TRAP+ multinucleated cells). Format: cell-based, murine. To be noted: Mus musculus; for inhibition at 5 µM: RAW264.7, RAW 264.7 cells, RANKL (100 ng/mL), compounds at 5 μM, TRAP-positive multinucleated cells, read-out: Inhibition of MNCs (%); for IC50: RAW264.7, different concentrations of compound, FIG. 1A, read-out: TRAP inhibitory activity IC50. The method, then: as §1, §2

Another series relates to NO production. Put plainly: Measurement of NO concentrations (Griess reaction) in porcine chondrocytes. Format: cell-based. To be noted: Sus scrofa, Chondrocyte, nitrite in supernatants, read-out: anti-inflammatory IC50 (μM) on NO production. The method, then: Porcine cartilage was obtained from the hind leg joints of pigs. The synthesis of chondrocytes from cartilage was performed according to our previous report. After enzymatic digestion of articular cartilage with 2 mg/mL protease in serum-free Dulbecco's modified Eagle's medium (DMEM)/antibiotics, the specimens were then digested overnight with 2 mg/mL collagenase I and 0.9 mg/ml, hyaluronidase in DMEM containing 10% fetal bovine serum (FBS). The cells were collected, passed through a cell strainer (Becton Dickinson, Mountain View, Calif., USA), and cultured in DMEM containing 10% […] and antibiotics for 3-4 days before use.
The measurement of NO release was reflected by determination of its stable end product, nitrite, in supernatants. The Griess reaction was performed with the concentrations of nitrite measured by a spectrophotometer. In brief, an aliquot (100 μL) of culture supernatant was incubated with 50 μL of 0.1% sulfanilamide in 5% phosphoric acid and 50 μL of 0.1% N-1-naphthyl-ethylenediamine dihydrochloride. After 10 min of incubation at room temperature, the absorbance was measured at 550 nm wavelength with a plate reader (recall, Grodig, […]).

The test system of series [3] is RANKL-induced resorption of osteoclast (RAW264.7 cells). Put plainly: Pit formation assay (bone resorption activity). Format: cell-based, murine. To be noted: 5 μM, dentine slices, 4 days, FIG. 1B. The method, then:
as §1
By using pit formation assay, compounds 4 and 16 have effect on inhibition of resorption of osteoclast. RAW264.7 cells were cultured without compounds (compound 4 or compound 16, 5 μM) or treated with compounds (compound 4 or compound 16, 5 μM) in 24 well dentine slices plates in the presence of RANKL after 4 days, to identify the ability of resorption of osteoclast by observing the resorption pits formation. […] It was obvious that compound 4 or 16 could inhibit the RANKL-induced resorption of osteoclast (FIG. 3A to D).

Molecules are shown by their SMILES.

For orientation: CC50 means the concentration that lowers cell viability or growth by half. As usually defined, the inhibition is how much of the control response was suppressed. As usually defined, the IC50 is the point on the concentration scale where inhibition reaches its midpoint.

As to `O=C(Nc1cc(F)ccc1F)c1cc(-c2ccc(F)cc2F)ccc1O` [compound 4, N-(2,5-difluorophenyl)-2′,4′-difluoro-4-hydroxy-[1,1′-biphenyl]-3-carboxamide], the CC50 in series [1] stood at 14.6 µM. The “Cell viability (%)” value with RAW 264.7 cells was determined as 102.46 ± 1.10%. Further, in series [2], the inhibition at 5 µM was determined as 67.3 ± 4.38% and the IC50 was 3.89 µM. For the same molecule, the IC50 in the series with NO production turned out to be 0.71 µM. Further, the “resorbed area compared to the cell cultured without drug in the presence of RANKL” value in series [3] was 23.11±2.25%.
As for `O=c1oc2ccc(-c3ccc(F)cc3F)cc2c(=O)n1-c1cc(F)ccc1F` [compound 16, 6-(2,4-difluorophenyl)-3-(2,5-difluorophenyl)-2H-benzo[e][1,3]oxazine-2,4(3H)-dione], in series [1], the CC50 stood at 10.8 µM. Further, the “Cell viability (%)” value in the series with RAW 264.7 cells was 86.60 ± 5.69%. Also, in series [2], the inhibition at 5 µM was found to be 86.8 ± 1.74% and the IC50 is < 2.5 µM. Moreover, the IC50 with NO production was determined as 1.15 µM. For the same molecule, in series [3], the “resorbed area compared to the cell cultured without drug in the presence of RANKL” value is 20.11±1.51%.
Turning to `O=c1oc2ccc(-c3ccc(F)cc3F)cc2c(=O)n1-c1cccc(C(F)(F)F)c1` [compound 18, 6-(2,4-difluorophenyl)-3-(3-(trifluoromethyl)phenyl)-2H-benzo[e][1,3]oxazine-2,4(3H)-dione], the midpoint of cytotoxicity in series [1], the CC50, lay at 13 µM. The “Cell viability (%)” value in the series on RAW 264.7 cells was determined as 100.13 ± 0.94%. Moreover, the inhibition at 5 µM in series [2] was found to be 62.9 ± 2.65%. Further, the half-maximal inhibitory concentration (IC50) with NO production was found to be 0.55 µM.
Consider `O=c1oc2ccc(-c3ccc(F)cc3F)cc2c(=O)n1-c1ccc(F)cc1F` [compound 14, 3,6-bis(2,4-difluorophenyl)-2H-benzo[e][1,3]oxazine-2,4(3H)-dione], for which it took 12.7 µM to reach half-maximal cytotoxicity in series [1] (CC50). In addition, in the series on RAW 264.7 cells, the “Cell viability (%)” value was 96.49 ± 1.86%. The inhibition at 5 µM in series [2] was 42.3 ± 6.62%. For the same molecule, the IC50 in the series on NO production stood at 1.26 µM.
In series [1], `C#Cc1cccc(-n2c(=O)oc3ccc(-c4ccc(F)cc4F)cc3c2=O)c1` [compound 20, 6-(2,4-difluorophenyl)-3-(3-ethynylphenyl)-2H-benzo[e][1,3]oxazine-2,4(3H)-dione] showed a cytotoxic concentration (CC50) of 11 µM. In addition, the “Cell viability (%)” value with RAW 264.7 cells worked out at 88.38 ± 4.65%. In addition, in series [2], the inhibition at 5 µM worked out at 57.5 ± 3.25%. Besides, the IC50 with NO production was 1.63 µM.
